Laboratory results published in patent publication US6355799B1, “Substituted benzene compounds, process for their preparation, and herbicidal and defoliant compositions containing them” (ISK Americas Incorporated, priority 1997, dated 2002).

Columns and labels:
Format in all cases: in vivo
[1] = tested on: redroot pigweed (Amaranthus retroflexus, AMARE); assay: Pre-emerge test, greenhouse herbicide activity screening; details: phytotoxicity rating 0-100, 14 days after application
How it was run: (§1)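 Herbicidal damage is scored 0 (none) to 100 (complete plant death) two weeks after a simulated field spray. Rates span 15–1000 g ai/ha, delivered in acetone at 187 l/ha. For post-emergence treatments, plants have 2–3 leaves and the spray carries 0.25% v/v non-ionic surfactant.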

[2] = tested on: barnyardgrass (Echinochloa crus-galli, ECHCG); assay: as above; details: phytotoxicity rating 0-100, 14 days after application
How it was run: as §1

[3] = tested on: common ragweed (Ambrosia artemisizfolia L., AMBEL); assay: as above; details: phytotoxicity rating 0-100, 14 days after application
How it was run: as §1

[4] = tested on: green foxtail (Setaria viridis, SETVI); assay: as above; details: phytotoxicity rating 0-100, 14 days after application
How it was run: as §1

[5] = tested on: ivyleaf morningglory (Ipomoea hederacea, IPOHE); assay: as above; details: phytotoxicity rating 0-100, 14 days after application
How it was run: as §1

[6] = tested on: johnsongrass (Sorghum halepense, SORHA); assay: as above; details: phytotoxicity rating 0-100, 14 days after application
How it was run: as §1

[7] = tested on: lambsquarters (Chenopodium album, CHEAL); assay: as above; details: phytotoxicity rating 0-100, 14 days after application
How it was run: as §1

[8] = tested on: large crabgrass (Digitaria sanguinalis, DIGSA); assay: as above; details: phytotoxicity rating 0-100, 14 days after application
How it was run: as §1

[9] = tested on: sicklepod (Cassia obtusifolia, CASOB); assay: as above; details: phytotoxicity rating 0-100, 14 days after application
How it was run: as §1

[10] = tested on: velvetleaf (Abutilon theophrasti, ABUTH); assay: as above; details: phytotoxicity rating 0-100, 14 days after application
How it was run: as §1

[11] = tested on: field corn (Zea mays L., var. Dekalb 535, CORN); assay: Pre-emerge test, crop safety; details: crop damage rating 0-100, 14 days after application
How it was run: (§2)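 Visual ratings on a 0-100 scale (0 no damage, 100 all plants dead) were taken at 14 days after treatment. Rates of 15-1000 g ai/ha in acetone, 187 l/ha, were sprayed onto soil one day after planting (pre-emerge) or onto 2-3 leaf plants with 0.25% v/v surfactant (post-emerge).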

[12] = tested on: upland rice (Oryza sp., var. Tebonnet, RICE); assay: Pre-emerge test, crop safety; details: crop damage rating 0-100, 14 days after application
How it was run: as §2

[13] = tested on: barnyardgrass (Echinochloa crus-galli, ECHCG); assay: Post-emerge test, greenhouse herbicide activity screening; details: post-emerge, 14 days after application, rating scale 0-100
How it was run: (§3)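 Compounds in acetone were track-sprayed at 187 l/ha, 15–1000 g ai/ha, onto sandy loam pots. Pre-emerge seeds were sown one day before spraying, with surface watering afterwards. Post-emerge plants were at the 2–3 leaf stage and sprayed with 0.25% v/v non-ionic surfactant. Injury was rated 0–100 at 14 days.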

[14] = tested on: green foxtail (Setaria viridis, SETVI); assay: as above; details: post-emerge, 14 days after application, rating scale 0-100
How it was run: as §3

[15] = tested on: ivyleaf morningglory (Ipomoea hederacea, IPOHE); assay: as above; details: post-emerge, 14 days after application, rating scale 0-100
How it was run: as §3

[16] = tested on: johnsongrass (Sorghum halepense, SORHA); assay: as above; details: post-emerge, 14 days after application, rating scale 0-100
How it was run: as §3

[17] = tested on: lambsquarters (Chenopodium album, CHEAL); assay: as above; details: post-emerge, 14 days after application, rating scale 0-100
How it was run: as §3

[18] = tested on: large crabgrass (Digitaria sanguinalis, DIGSA); assay: as above; details: post-emerge, 14 days after application, rating scale 0-100
How it was run: as §3

[19] = tested on: redroot pigweed (Amaranthus retroflexus, AMARE); assay: as above; details: post-emerge, 14 days after application
How it was run: as §3

[20] = tested on: sicklepod (Cassia obtusifolia, CASOB); assay: as above; details: post-emerge, 14 days after application, rating scale 0-100
How it was run: as §3

[21] = tested on: velvetleaf (Abutilon theophrasti, ABUTH); assay: as above; details: post-emerge, 14 days after application, rating scale 0-100
How it was run: as §3

[22] = tested on: field corn (Zea mays L., var. Dekalb 535, CORN); assay: Post-emerge test, crop safety; details: post-emerge, 14 days after application, rating scale 0-100
How it was run: as §1

[23] = tested on: upland rice (Oryza sp., var. Tebonnet, RICE); assay: Post-emerge test, crop safety; details: post-emerge, 14 days after application, rating scale 0-100
How it was run: as §1

Cn1c(C(F)(F)F)cc(=O)n(-c2ccc(Cl)cc2NC(=O)OCc2ccccc2F)c1=O [4-49]
80: Pre-emerge Herbicidal Activity AMBEL ([3]; 63 g ai/ha) | phytotoxicity rating IPOHE ([15]; 63 g ai/ha) | phytotoxicity rating CASOB ([20]; 63 g ai/ha) | phytotoxicity rating CORN (crop damage) ([22]; 250 g ai/ha)
25: Pre-emerge Herbicidal Activity RICE ([12]; 250 g ai/ha)
40: Pre-emerge Herbicidal Activity IPOHE ([5]; 63 g ai/ha)
75: Pre-emerge Herbicidal Activity ECHCG ([2]; 250 g ai/ha)
70: Pre-emerge Herbicidal Activity SETVI ([4]; 63 g ai/ha) | Pre-emerge Herbicidal Activity DIGSA ([8]; 63 g ai/ha) | phytotoxicity rating RICE (crop damage) ([23]; 250 g ai/ha)
10: Pre-emerge Herbicidal Activity ECHCG ([2]; 63 g ai/ha) | phytotoxicity rating ECHCG ([13]; 63 g ai/ha) | phytotoxicity rating ECHCG ([13]; 250 g ai/ha) | phytotoxicity rating SORHA ([16]; 250 g ai/ha) | phytotoxicity rating DIGSA ([18]; 63 g ai/ha) | phytotoxicity rating DIGSA ([18]; 250 g ai/ha) | phytotoxicity rating RICE (crop damage) ([23]; 63 g ai/ha)
20: phytotoxicity rating CORN (crop damage) ([22]; 63 g ai/ha)
15: Pre-emerge Herbicidal Activity CORN ([11]; 250 g ai/ha)
60: Pre-emerge Herbicidal Activity AMBEL ([3]; 250 g ai/ha) | Pre-emerge Herbicidal Activity CASOB ([9]; 250 g ai/ha)
30: Pre-emerge Herbicidal Activity CASOB ([9]; 63 g ai/ha) | Pre-emerge Herbicidal Activity RICE ([12]; 63 g ai/ha) | phytotoxicity rating SETVI ([14]; 63 g ai/ha) | phytotoxicity rating SETVI ([14]; 250 g ai/ha)
100: Pre-emerge Herbicidal Activity AMARE ([1]; 63 g ai/ha) | Pre-emerge Herbicidal Activity AMARE ([1]; 250 g ai/ha) | Pre-emerge Herbicidal Activity SETVI ([4]; 250 g ai/ha) | Pre-emerge Herbicidal Activity IPOHE ([5]; 250 g ai/ha) | Pre-emerge Herbicidal Activity CHEAL ([7]; 63 g ai/ha) | Pre-emerge Herbicidal Activity CHEAL ([7]; 250 g ai/ha) | Pre-emerge Herbicidal Activity DIGSA ([8]; 250 g ai/ha) | Pre-emerge Herbicidal Activity ABUTH ([10]; 250 g ai/ha) | phytotoxicity rating IPOHE ([15]; 250 g ai/ha) | phytotoxicity rating CHEAL ([17]; 63 g ai/ha) | phytotoxicity rating CHEAL ([17]; 250 g ai/ha) | phytotoxicity rating AMARE ([19]; 63 g ai/ha, rating scale 0-100 (0 no damage, 100 complete death)) | phytotoxicity rating AMARE ([19]; 250 g ai/ha, rating scale 0-100) | phytotoxicity rating CASOB ([20]; 250 g ai/ha) | phytotoxicity rating ABUTH ([21]; 63 g ai/ha) | phytotoxicity rating ABUTH ([21]; 250 g ai/ha)
95: Pre-emerge Herbicidal Activity ABUTH ([10]; 63 g ai/ha)
50: Pre-emerge Herbicidal Activity SORHA ([6]; 63 g ai/ha)
90: Pre-emerge Herbicidal Activity SORHA ([6]; 250 g ai/ha)
0: Pre-emerge Herbicidal Activity CORN ([11]; 63 g ai/ha) | phytotoxicity rating SORHA ([16]; 63 g ai/ha)
